The results in this text go back to patent US11819552B2, “Antibody-drug conjugates targeting uPARAP” (RIGSHOSPITALET, priority 2016, dated 2023).

Where a SMILES comes first, the peptide text is derived from it. [ ]: non-standard residue; d: D form. The star is where a group is joined. Dolaproine = CO[C@@H]([C@@H]1CCCN1)[C@@H](C)C(=O)O; Dil = CC[C@H](C)[C@H](NC)[C@@H](CC(=O)O)OC; X1 = C[C@@H](N*)[C@@H](O)c1ccccc1; NMeV = CN[C@H](C(=O)O)C(C)C

For one assay, the system named is KNS42 cells. The assay is described as follows: Cell cycle distribution analysis. The format is cell-based. The following applies: 3-day incubation, 50 nM free toxin. As to the method: (§1) Cell cycle analysis was performed using a Nucleocounter NC-3000 system (ChemoMetec Denmark), using the manufacturers standard protocol for analyzing the cell cycle distribution of a population of cells, based on the DNA content of each cell. The percentage of cells in Sub-G1, G1, S, or G2/M-phases of the cell cycle was established from histogram analysis using the NucleoView NC-3000 software.

The next assay relates to THP-1 cells. The assay is described as follows: Cell cycle distribution analysis. Format: cell-based. The following applies: 3-day incubation, 50 nM free toxin. The protocol:
as §1

Another assay deals with HT1080 cells. The assay is described as follows: Cell cycle distribution analysis. As to conditions: 3-day incubation, 50 nM free toxin. The format is cell-based. As to the method: as §1
The next assay relates to U937 cells. The assay is described as follows: Cell cycle distribution analysis. Format: cell-based. The following applies: 3-day incubation, 50 nM free toxin. The protocol: as §1
Another assay concerns the target T1, uPARAP (Homo sapiens, UniProt Q9UBG0).
T1 sequence (Q9UBG0 31-1479): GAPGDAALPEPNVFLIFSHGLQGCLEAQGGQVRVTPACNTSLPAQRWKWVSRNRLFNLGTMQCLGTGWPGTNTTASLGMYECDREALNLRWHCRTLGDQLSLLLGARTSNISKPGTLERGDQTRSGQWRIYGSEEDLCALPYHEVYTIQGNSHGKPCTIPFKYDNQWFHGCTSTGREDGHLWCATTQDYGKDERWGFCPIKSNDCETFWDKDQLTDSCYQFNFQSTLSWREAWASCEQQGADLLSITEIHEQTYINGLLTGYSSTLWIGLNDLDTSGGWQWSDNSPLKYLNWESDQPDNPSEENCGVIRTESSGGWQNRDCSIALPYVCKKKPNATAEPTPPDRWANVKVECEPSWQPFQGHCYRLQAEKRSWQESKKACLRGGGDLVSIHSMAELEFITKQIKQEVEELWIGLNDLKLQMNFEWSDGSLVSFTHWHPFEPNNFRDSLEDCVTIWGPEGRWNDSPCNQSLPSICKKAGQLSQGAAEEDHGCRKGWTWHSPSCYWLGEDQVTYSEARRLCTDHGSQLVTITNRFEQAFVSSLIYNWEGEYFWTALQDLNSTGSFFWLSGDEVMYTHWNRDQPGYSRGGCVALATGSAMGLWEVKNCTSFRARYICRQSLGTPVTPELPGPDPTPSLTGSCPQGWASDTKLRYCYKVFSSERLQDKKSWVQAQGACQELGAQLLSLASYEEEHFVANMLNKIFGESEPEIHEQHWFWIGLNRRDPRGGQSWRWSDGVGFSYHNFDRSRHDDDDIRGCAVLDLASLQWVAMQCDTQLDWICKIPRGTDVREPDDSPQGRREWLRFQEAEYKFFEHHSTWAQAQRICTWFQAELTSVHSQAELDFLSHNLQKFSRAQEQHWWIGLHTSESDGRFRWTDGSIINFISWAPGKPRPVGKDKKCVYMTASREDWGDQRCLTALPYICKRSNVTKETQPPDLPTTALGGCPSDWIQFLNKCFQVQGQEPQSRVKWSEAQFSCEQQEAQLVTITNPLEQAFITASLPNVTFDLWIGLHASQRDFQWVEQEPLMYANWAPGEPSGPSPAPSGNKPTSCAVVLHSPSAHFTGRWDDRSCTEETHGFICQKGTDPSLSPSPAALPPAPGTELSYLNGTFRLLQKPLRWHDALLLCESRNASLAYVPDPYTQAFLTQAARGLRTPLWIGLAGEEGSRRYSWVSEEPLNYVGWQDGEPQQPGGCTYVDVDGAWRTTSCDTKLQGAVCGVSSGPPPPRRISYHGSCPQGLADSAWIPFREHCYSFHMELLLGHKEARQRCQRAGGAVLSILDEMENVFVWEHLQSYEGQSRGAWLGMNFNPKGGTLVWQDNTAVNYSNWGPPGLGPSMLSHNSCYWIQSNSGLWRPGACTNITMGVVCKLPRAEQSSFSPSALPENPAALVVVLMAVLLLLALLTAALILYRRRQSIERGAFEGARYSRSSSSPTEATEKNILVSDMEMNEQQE
The assay is described as follows: Western blotting of MG63 cell lysate. Format: binding. More on the design: endogenous in cells; host or cells: MG63 human osteosarcoma cells. As to conditions: detergent lysate of uPARAP-positive MG63 human osteosarcoma cells. The protocol:
For Western blotting, a detergent cell lysate prepared from uPARAP-positive MG63 human osteosarcoma cells was analyzed, using identical concentrations of “2h9 cloned” and “2h9 original” as the primary antibodies. […] No reaction is seen in the absence of primary antibody (negative control).

For the molecule `CC[C@H](C)[C@@H]([C@@H](CC(=O)N1CCC[C@H]1[C@H](OC)[C@@H](C)C(=O)N[C@H](C)[C@@H](O)c1ccccc1)OC)N(C)C(=O)[C@@H](NC(=O)[C@@H](NC)C(C)C)C(C)C` [MMAE, monomethyl auristatin E, reference compound] (H-[NMeV]V[Dil][Dolaproine]-X1), the Cell cycle distribution result in the assay on KNS42 cells is “shift in cell cycle distribution towards the Sub-G1 and G2/M phases”; in the assay with THP-1 cells, “shift in cell cycle distribution towards the Sub-G1 and G2/M phases”; in the assay with HT1080 cells, “shift in cell cycle distribution towards the Sub-G1 and G2/M phases”; in the assay on U937 cells it was “shift in cell cycle distribution towards the Sub-G1 and G2/M phases”.

B1: 2h9 cloned: recombinant mAb 2h9 product produced in CHO cells from SEQ ID NO: 1 and SEQ ID NO: 5 (protein)
light: DIQMTQSPASQSASLGESVTITCLASQTIGTWLAWYQQKPGKSPQLLIYAATTLTDGVPSRFSGAGSGTKFSLKISSLQAEDFASYFCQEFFSTPFTFGSGTKLELKRADAAPTVSIFPPSSEQLTSGGASVVCFLNNFYPKDINVKWKIDGGERQNGVLNSWTDQDSKDSTYSMSSTLTLTKDEYERHNSYTCEATHKTSTSPIVKSFNRNEC
heavy: QVQLQQPGTELVRPGLSVKLSCKASGYTFTSYWMNWVKQRPGQGLEWIGMIHPSNDEKRINQKFKDKATLTVDKFSSTVYMQVSSPTSEDSAVYYCARGGGDYVGDYALDFWGQGTSVTVSSAKTTPPSVYPLAPGSAAQTNSMVTLGCLVKGYFPEPVTVTWNSGSLSSGVHTFPAVLQSDLYTLSSSVTVPSSTWPSETVTCNVAHPASSTKVDKKIVPRDCGCKPCICTVPEVSSVFIFPPKPKDVLTITLTPKVTCVVVDISKDDPEVQFSWFVDDVEVHTAQTQPREEQFNSTFRSVSELPIMHQDWLNGKEFKCRVNSAAFPAPIEKTISKTKGRPKAPQVYTIPPPKEQMAKDKVSLTCMITDFFPEDITVEWQWNGQPAENYKNTQPIMDTDGSYFIYSKLNVQKSNWEAGNTFTCSVLHEGLHNHHTEKSLSHSPGK
For B1, the “Reactivity in Western blotting” value with uPARAP is listed as “react specifically with the uPARAP protein”; with uPARAP (listed as recombinant antibody product), “specifically recognize uPARAP”.
